Results: patent US20240002391A1, “4-ALKOXYPYRROLO[2,1-F][1,2,4]TRIAZINES AND PREPARATION AND USES THEREOF” (BioSplice Therapeutics, Inc., priority 2022, published 2024)

Target: recombinant DYRK1A kinase (Homo sapiens (Human), UniProt Q13627)
Experiment: DYRK1A kinase assay (Ser/Thr 18 peptide Z-lyte FRET)
Type: biochemical
Conditions: DYRK1A kinase activity, Z-lyte Ser/Thr 18 peptide, 15 μM ATP; method text calls the value IC50; read-out: EC50 (the source's name)
Method in brief: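 Z-lyte FRET: recombinant DYRK1A 0.25 μg/mL, ATP 15 μM, Ser/Thr 18 peptide 4 μM, with compound (11-point 1:3, 10 μM top) 1 h at room temperature, then development reagent 1 h. Coumarin/fluorescein emission ratio converted to % phosphorylation; IC50 by non-linear regression, duplicates.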

## COc1nc(NCC2(C)COC2)nn2ccc(-c3ccc4nnn(CC(F)F)c4c3)c12 [Compound 1144, 5-(1-(2,2-Difluoroethyl)-1H-benzo[d][1,2,3]triazol-6-yl)-4-methoxy-N-((3-methyloxetan-3-yl)methyl)pyrrolo[2,1-f][1,2,4]triazin-2-amine]
  IC50: 2 nM

## COc1nc(N[C@@H]2CCC[C@@H]2O)nn2ccc(-c3cnc4nccn4c3)c12 [Compound 942, (1S,2R)-2-((5-(Imidazo[1,2-a]pyrimidin-6-yl)-4-methoxypyrrolo[2,1-f][1,2,4]triazin-2-yl)amino)cyclopentan-1-ol]
  IC50: 18.9 nM

## COc1nc(NC2CCC(C)(C#N)CC2)nn2ccc(-c3ccc4nnn(CC(F)F)c4c3)c12 (centres unmarked) [Compound 721, 4-((5-(1-(2,2-Difluoroethyl)-1H-benzo[d][1,2,3]triazol-6-yl)-4-methoxypyrrolo[2,1-f][1,2,4]triazin-2-yl)amino)-1-methylcyclohexane-1-carbonitrile]
  IC50: 5.7 nM

## COc1nc(NC2CCOCC2)nn2ccc(-c3cnc4nccn4c3)c12 [Compound 271, 5-(Imidazo[1,2-a]pyrimidin-6-yl)-4-methoxy-N-(tetrahydro-2H-pyran-4-yl)pyrrolo[2,1-f][1,2,4]triazin-2-amine]
  IC50: 3.8 nM

## COc1nc(N[C@H]2C[C@@](C)(O)C2)nn2ccc(-c3ccc4nnn(CC(F)F)c4c3)c12 [Compound 710, (1s,3s)-3-((5-(1-(2,2-Difluoroethyl)-1H-benzo[d][1,2,3]triazol-6-yl)-4-methoxypyrrolo[2,1-f][1,2,4]triazin-2-yl)amino)-1-methylcyclobutan-1-ol]
  IC50: 0.9 nM

## COc1nc(N[C@H]2C[C@@](C)(O)C2)nn2ccc(-c3ccc4nnn(C)c4c3)c12 [Compound 199, cis-3-((4-Methoxy-5-(1-methyl-1H-benzo[d][1,2,3]triazol-6-yl)pyrrolo[2,1-f][1,2,4]triazin-2-yl)amino)-1-methylcyclobutan-1-ol]
  IC50: 5.7 nM

## COc1nc(N[C@H]2CC[C@@H](OCCO)CC2)nn2ccc(-c3ccn4nccc4c3)c12 [Compound 13, 2-((cis-4-((4-Methoxy-5-(pyrazolo[1,5-a]pyridin-5-yl)pyrrolo[2,1-f][1,2,4]triazin-2-yl)amino)cyclohexyl)oxy)ethan-1-ol]
  IC50: 5.5 nM

## COc1nc(N[C@H]2C[C@](C)(C(=O)N(C)C)C2)nn2ccc(-c3ccc4nc(C)n(CC(F)F)c4c3)c12 [Compound 109, trans-3-((5-(1-(2,2-Difluoroethyl)-2-methyl-1H-benzo[d]imidazol-6-yl)-4-methoxypyrrolo[2,1-f][1,2,4]triazin-2-yl)amino)-N,N,1-trimethylcyclobutane-1-carboxamide]
  IC50: 1 nM

## COc1nc(N[C@@H]2CN(C)C[C@@H]2F)nn2ccc(-c3ccc4nc(C)n(CC(F)F)c4c3)c12 [Compound 114, 5-(1-(2,2-Difluoroethyl)-2-methyl-1H-benzo[d]imidazol-6-yl)-N-((3R,4S)-4-fluoro-1-methylpyrrolidin-3-yl)-4-methoxypyrrolo[2,1-f][1,2,4]triazin-2-amine]
  IC50: 1.9 nM

## COc1nc(N[C@@H]2CCN(C3COC3)C[C@H]2F)nn2ccc(-c3cc(F)c4nc(C)n(CC(F)F)c4c3)c12 [Compound 159, 5-(1-(2,2-Difluoroethyl)-4-fluoro-2-methyl-1H-benzo[d]imidazol-6-yl)-N-((3R,4R)-3-fluoro-1-(oxetan-3-yl)piperidin-4-yl)-4-methoxypyrrolo[2,1-f][1,2,4]triazin-2-amine]
  IC50: 2.9 nM

## COc1nc(NC2CCC3(CC2)CN(C(C)=O)C3)nn2ccc(-c3ccc4nnn(CC(F)F)c4c3)c12 [Compound 799, 1-(7-((5-(1-(2,2-Difluoroethyl)-1H-benzo[d][1,2,3]triazol-6-yl)-4-methoxypyrrolo[2,1-f][1,2,4]triazin-2-yl)amino)-2-azaspiro[3.5]nonan-2-yl)ethan-1-one]
  IC50: 1.7 nM

## COc1nc(N[C@H]2CCN(CC(C)(C)C#N)C[C@H]2F)nn2ccc(-c3ccc4nnn(CC(F)F)c4c3)c12 [Compound 757, 3-((3R,4S)-4-((5-(1-(2,2-Difluoroethyl)-1H-benzo[d][1,2,3]triazol-6-yl)-4-methoxypyrrolo[2,1-f][1,2,4]triazin-2-yl)amino)-3-fluoropiperidin-1-yl)-2,2-dimethylpropanenitrile]
  IC50: 36.7 nM

## COc1nc(N[C@H]2CC[C@@](C)(O)CC2)nn2ccc(-c3cnc4nccn4c3)c12 [Compound 4, cis-4-((5-(Imidazo[1,2-a]pyrimidin-6-yl)-4-methoxypyrrolo[2,1-f][1,2,4]triazin-2-yl)amino)-1-methylcyclohexan-1-ol]
  IC50: 1.1 nM

## COc1nc(N[C@@H]2CCN(C(C)=O)CC2(F)F)nn2ccc(-c3cc(F)c4nc(C)n(C(C)C)c4c3)c12 [Compound 550, (R)-1-(3,3-Difluoro-4-((5-(4-fluoro-1-isopropyl-2-methyl-1H-benzo[d]imidazol-6-yl)-4-methoxypyrrolo[2,1-f][1,2,4]triazin-2-yl)amino)piperidin-1-yl)ethan-1-one]
  IC50: 1.6 nM

## COc1nc(NC23CCC(O)(CC2)C3)nn2ccc(-c3ccc4ncnn4c3)c12 [Compound 582, 4-((5-([1,2,4]Triazolo[1,5-a]pyridin-6-yl)-4-methoxypyrrolo[2,1-f][1,2,4]triazin-2-yl)amino)bicyclo[2.2.1]heptan-1-ol]
  IC50: 40.9 nM

## CNC(=O)c1cnc2ccc(-c3ccn4nc(NC5CCC6(CC5)COC6)nc(OC)c34)cn12 [Compound 107, 6-(2-((2-Oxaspiro[3.5]nonan-7-yl)amino)-4-methoxypyrrolo[2,1-f][1,2,4]triazin-5-yl)-N-methylimidazo[1,2-a]pyridine-3-carboxamide]
  IC50: 0.9 nM

## COc1nc(N[C@H]2C[C@@H](OC)C2)nn2ccc(-c3cnc4nccn4c3)c12 [Compound 236, 5-(Imidazo[1,2-a]pyrimidin-6-yl)-4-methoxy-N-(cis-3-methoxycyclobutyl)pyrrolo[2,1-f][1,2,4]triazin-2-amine]
  IC50: 0.5 nM

## COc1nc(N[C@H]2CCN(C3COC3)C[C@H]2F)nn2ccc(-c3ccc4nc(C)n(CC(F)F)c4c3)c12 [Compound 137, 5-(1-(2,2-Difluoroethyl)-2-methyl-1H-benzo[d]imidazol-6-yl)-N-((3R,4S)-3-fluoro-1-(oxetan-3-yl)piperidin-4-yl)-4-methoxypyrrolo[2,1-f][1,2,4]triazin-2-amine]
  IC50: 1.9 nM

## COc1nc(NC2CCC3(CC2)COC3)nn2ccc(-c3ccc4nncn4c3)c12 [Compound 188, 5-([1,2,4]Triazolo[4,3-a]pyridin-6-yl)-4-methoxy-N-(2-oxaspiro[3.5]nonan-7-yl)pyrrolo[2,1-f][1,2,4]triazin-2-amine]
  IC50: 50.3 nM

## COc1nc(N[C@@H]2CCN(C3COC3)C[C@@H]2F)nn2ccc(-c3cnc4nccn4c3)c12 [Compound 269, N-((3S,4R)-3-Fluoro-1-(oxetan-3-yl)piperidin-4-yl)-5-(imidazo[1,2-a]pyrimidin-6-yl)-4-methoxypyrrolo[2,1-f][1,2,4]triazin-2-amine]
  IC50: 2.3 nM

## CCC(=O)N[C@]1(C)C[C@H](Nc2nc(OC)c3c(-c4ccc5nccnc5c4)ccn3n2)C1 [Compound 335, N-(cis-3-((4-Methoxy-5-(quinoxalin-6-yl)pyrrolo[2,1-f][1,2,4]triazin-2-yl)amino)-1-methylcyclobutyl)propionamide]
  IC50: 2 nM

## COc1nc(NC2CCN(C3COC3)CC2)nn2ccc(-c3ccc4nccn4c3)c12 [Compound 62, 5-(Imidazo[1,2-a]pyridin-6-yl)-4-methoxy-N-(1-(oxetan-3-yl)piperidin-4-yl)pyrrolo[2,1-f][1,2,4]triazin-2-amine]
  IC50: 8.5 nM

## COc1nc(N[C@H]2C[C@@](C)(NC(C)=O)C2)nn2ccc(-c3ccc4nnn(C)c4c3)c12 [Compound 205, N-(cis-3-((4-Methoxy-5-(1-methyl-1H-benzo[d][1,2,3]triazol-6-yl)pyrrolo[2,1-f][1,2,4]triazin-2-yl)amino)-1-methylcyclobutyl)acetamide]
  IC50: 4.3 nM

## CNC(=O)c1cnc2ccc(-c3ccn4nc(N[C@H]5CC[C@](C)(OC)CC5)nc(OC)c34)cn12 [Compound 445, 6-(4-Methoxy-2-(((1r,4r)-4-methoxy-4-methylcyclohexyl)amino)pyrrolo[2,1-f][1,2,4]triazin-5-yl)-N-methylimidazo[1,2-a]pyridine-3-carboxamide]
  IC50: 2.1 nM

## COc1nc(N[C@@H]2CN(C(C)=O)C[C@@H]2F)nn2ccc(-c3cc(F)c4nnn(CC(F)F)c4c3)c12 [Compound 812, 1-((3R,4S)-3-((5-(1-(2,2-Difluoroethyl)-4-fluoro-1H-benzo[d][1,2,3]triazol-6-yl)-4-methoxypyrrolo[2,1-f][1,2,4]triazin-2-yl)amino)-4-fluoropyrrolidin-1-yl)ethan-1-one]
  IC50: 2.8 nM

## COc1nc(N[C@H]2CC[C@](C)(OC)CC2)nn2ccc(-c3cnc4nccn4c3)c12 [Compound 954, 5-(Imidazo[1,2-a]pyrimidin-6-yl)-4-methoxy-N-((1r,4r)-4-methoxy-4-methylcyclohexyl)pyrrolo[2,1-f][1,2,4]triazin-2-amine]
  IC50: 0.9 nM

## COc1nc(N[C@H]2CC[C@@]3(CCO3)CC2)nn2ccc(-c3cnc4nccn4c3)c12 [Compound 275, 5-(Imidazo[1,2-a]pyrimidin-6-yl)-4-methoxy-N-((4r,7r)-1-oxaspiro[3.5]nonan-7-yl)pyrrolo[2,1-f][1,2,4]triazin-2-amine]
  IC50: 3.4 nM

## COc1nc(N[C@H]2CCN(C3COC3)CC2(F)F)nn2ccc(-c3ccc4ncccc4c3)c12 [Compound 322, (S)—N-(3,3-Difluoro-1-(oxetan-3-yl)piperidin-4-yl)-4-methoxy-5-(quinolin-6-yl)pyrrolo[2,1-f][1,2,4]triazin-2-amine]
  IC50: 6.6 nM

## COc1nc(N[C@H]2C[C@](C)(C(=O)NC3(C)CCC3)C2)nn2ccc(-c3ccc4ncccc4c3)c12 [Compound 1040, trans-3-((4-Methoxy-5-(quinolin-6-yl)pyrrolo[2,1-f][1,2,4]triazin-2-yl)amino)-1-methyl-N-(1-methylcyclobutyl)cyclobutane-1-carboxamide]
  IC50: 2.7 nM
